Laboratory results from PubChem BioAssay (NCI).
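Growth conditions: 96-well plates. Treatment: test compound, 48 hours, 5 concentrations. Analysis: linear interpolation between bracketing concentrations; unreached endpoints set to highest concentration. Definition used: TGI = concentration required for complete inhibition of growth.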

Assays:
Assay in all cases: growth of human tumour cells (NCI), 48 h
[1] = test system: 786-0 renal
[2] = test system: A498 renal
[3] = test system: A549 NSCLC
[4] = test system: ACHN renal
[5] = test system: CAKI-1 renal
[6] = test system: COLO 205 colon
[7] = test system: DLD-1 colon
[8] = test system: DMS 114 small cell lung
[9] = test system: DMS 273 small cell lung
[10] = test system: EKVX NSCLC
[11] = test system: HCC-2998 colon
[12] = test system: HCT-116 colon
[13] = test system: HCT-15 colon
[14] = test system: HOP-18 NSCLC
[15] = test system: HOP-62 NSCLC
[16] = test system: HOP-92 NSCLC
[17] = test system: HT29 colon
[18] = test system: IGROV1 ovarian
[19] = test system: KM12 colon
[20] = test system: KM20L2 colon
[21] = test system: LOX IMVI melanoma
[22] = test system: LXFL 529 NSCLC
[23] = test system: M14 melanoma
[24] = test system: M19-MEL melanoma
[25] = test system: MALME-3M melanoma
[26] = test system: NCI-H226 lung
[27] = test system: NCI-H23 lung
[28] = test system: NCI-H460 lung
[29] = test system: OVCAR-3 ovarian
[30] = test system: OVCAR-4 ovarian
[31] = test system: OVCAR-5 ovarian
[32] = test system: OVCAR-8 ovarian
[33] = test system: RPMI-8226 leukemia
[34] = test system: RXF 393 renal
[35] = test system: SF-268 CNS
[36] = test system: SF-295 CNS
[37] = test system: SF-539 CNS
[38] = test system: SK-MEL-2 melanoma
[39] = test system: SK-MEL-28 melanoma
[40] = test system: SK-OV-3 ovarian
[41] = test system: SN12C renal
[42] = test system: SNB-19 CNS
[43] = test system: SNB-75 CNS
[44] = test system: SNB-78 CNS
[45] = test system: SW-620 colon
[46] = test system: TK-10 renal
[47] = test system: U251 CNS
[48] = test system: UACC-257 melanoma
[49] = test system: UACC-62 melanoma
[50] = test system: UO-31 renal
[51] = test system: XF 498 CNS
[52] = test system: CCRF-CEM leukemia
[53] = test system: HL-60(TB) leukemia
[54] = test system: K-562 leukemia
[55] = test system: MOLT-4 leukemia
[56] = test system: NCI-H522 lung
[57] = test system: SR leukemia
[58] = test system: SK-MEL-5 melanoma

CC(C)=CC(=O)CC(=O)C(=O)NCCNC(=O)C(=O)CC(=O)C=C(C)C
TGI [1]: > 50 µM | TGI [2]: > 50 µM | TGI [3]: > 50 µM | TGI [4]: > 50 µM | TGI [5]: > 50 µM | TGI [6]: > 50 µM | TGI [7]: > 50 µM | TGI [8]: > 50 µM | TGI [9]: > 50 µM | TGI [10]: > 50 µM | TGI [11]: > 50 µM | TGI [12]: > 50 µM | TGI [13]: > 50 µM | TGI [14]: > 50 µM | TGI [15]: > 50 µM | TGI [16]: > 50 µM | TGI [17]: > 50 µM | TGI [18]: > 50 µM | TGI [19]: > 50 µM | TGI [20]: > 50 µM | TGI [21]: > 50 µM | TGI [22]: > 50 µM | TGI [23]: > 50 µM | TGI [24]: > 50 µM | TGI [25]: > 50 µM | TGI [26]: > 50 µM | TGI [27]: > 50 µM | TGI [28]: > 50 µM | TGI [29]: > 50 µM | TGI [30]: > 50 µM | TGI [31]: > 50 µM | TGI [32]: > 50 µM | TGI [33]: > 50 µM | TGI [34]: > 50 µM | TGI [35]: > 50 µM | TGI [36]: > 50 µM | TGI [37]: > 50 µM | TGI [38]: > 50 µM | TGI [39]: > 50 µM | TGI [40]: > 50 µM | TGI [41]: > 50 µM | TGI [42]: > 50 µM | TGI [43]: > 50 µM | TGI [44]: > 50 µM | TGI [45]: > 50 µM | TGI [46]: > 50 µM | TGI [47]: > 50 µM | TGI [48]: > 50 µM | TGI [49]: > 50 µM | TGI [50]: > 50 µM | TGI [51]: > 50 µM

O=C(O)C1=C(C(=O)O)Oc2ccccc2O1
TGI [1]: > 100 µM | TGI [2]: > 100 µM | TGI [3]: > 100 µM | TGI [4]: > 100 µM | TGI [5]: > 100 µM | TGI [52]: > 100 µM | TGI [6]: > 100 µM | TGI [7]: > 100 µM | TGI [8]: > 100 µM | TGI [9]: > 100 µM | TGI [10]: > 100 µM | TGI [11]: > 100 µM | TGI [12]: > 100 µM | TGI [13]: > 100 µM | TGI [53]: > 100 µM | TGI [14]: > 100 µM | TGI [15]: > 100 µM | TGI [16]: > 100 µM | TGI [17]: > 100 µM | TGI [18]: > 100 µM | TGI [54]: > 100 µM | TGI [19]: > 100 µM | TGI [20]: > 100 µM | TGI [21]: > 100 µM | TGI [22]: > 100 µM | TGI [23]: > 100 µM | TGI [24]: > 100 µM | TGI [25]: > 100 µM | TGI [55]: > 100 µM | TGI [26]: > 100 µM | TGI [27]: > 100 µM | TGI [28]: > 100 µM | TGI [56]: > 100 µM | TGI [29]: > 100 µM | TGI [30]: > 100 µM | TGI [31]: > 100 µM | TGI [32]: > 100 µM | TGI [34]: > 100 µM | TGI [35]: > 100 µM | TGI [36]: > 100 µM | TGI [37]: > 100 µM | TGI [38]: > 100 µM | TGI [39]: > 100 µM | TGI [40]: > 100 µM | TGI [41]: > 100 µM | TGI [42]: > 100 µM | TGI [43]: > 100 µM | TGI [44]: > 100 µM | TGI [57]: > 100 µM | TGI [45]: > 100 µM | TGI [46]: > 100 µM | TGI [47]: > 100 µM | TGI [48]: > 100 µM | TGI [49]: > 100 µM | TGI [50]: > 100 µM | TGI [51]: > 100 µM

Clc1ccc(-c2nnc(-c3nsc4ccccc34)o2)cc1
TGI [3]: > 100 µM | TGI [4]: > 100 µM | TGI [6]: > 100 µM | TGI [8]: > 100 µM | TGI [9]: > 100 µM | TGI [10]: > 100 µM | TGI [11]: 93.7 µM | TGI [12]: 42.9 µM | TGI [13]: > 100 µM | TGI [15]: 33.6 µM | TGI [16]: 46.2 µM | TGI [17]: > 100 µM | TGI [18]: > 100 µM | TGI [19]: > 100 µM | TGI [20]: > 100 µM | TGI [21]: > 100 µM | TGI [22]: > 100 µM | TGI [23]: > 100 µM | TGI [24]: > 100 µM | TGI [27]: 74.1 µM | TGI [28]: > 100 µM | TGI [29]: 32 µM | TGI [30]: 34.5 µM | TGI [31]: > 100 µM | TGI [32]: > 100 µM | TGI [33]: > 100 µM | TGI [34]: 99.4 µM | TGI [35]: 66.6 µM | TGI [37]: 48.9 µM | TGI [38]: > 100 µM | TGI [39]: > 100 µM | TGI [58]: > 100 µM | TGI [41]: > 100 µM | TGI [42]: > 100 µM | TGI [43]: 24.6 µM | TGI [44]: > 100 µM | TGI [45]: > 100 µM | TGI [46]: 51.2 µM | TGI [47]: 33.5 µM | TGI [48]: > 100 µM | TGI [49]: > 100 µM | TGI [50]: 47.5 µM

Cn1c(=O)c(C(=O)NC23CC4CC(CC(C4)C2)C3)c(O)c2ccccc21
TGI [1]: 30.3 µM | TGI [3]: > 100 µM | TGI [4]: 42.9 µM | TGI [52]: > 100 µM | TGI [6]: > 100 µM | TGI [7]: > 100 µM | TGI [8]: > 100 µM | TGI [9]: 64.3 µM | TGI [10]: > 100 µM | TGI [12]: 57.9 µM | TGI [13]: > 100 µM | TGI [53]: > 100 µM | TGI [15]: 43.6 µM | TGI [17]: 48.1 µM | TGI [18]: 95.6 µM | TGI [54]: > 100 µM | TGI [19]: > 100 µM | TGI [20]: > 100 µM | TGI [21]: > 100 µM | TGI [22]: > 100 µM | TGI [23]: > 100 µM | TGI [24]: > 100 µM | TGI [25]: 44.7 µM | TGI [55]: > 100 µM | TGI [26]: 48.4 µM | TGI [27]: > 100 µM | TGI [28]: 51.1 µM | TGI [56]: > 100 µM | TGI [29]: 63 µM | TGI [32]: 64.1 µM | TGI [33]: > 100 µM | TGI [34]: 35.9 µM | TGI [35]: > 100 µM | TGI [36]: 57.4 µM | TGI [37]: > 100 µM | TGI [39]: > 100 µM | TGI [40]: 73.4 µM | TGI [41]: 54.8 µM | TGI [42]: 43.9 µM | TGI [43]: 83.8 µM | TGI [44]: > 100 µM | TGI [57]: > 100 µM | TGI [45]: > 100 µM | TGI [46]: 48 µM | TGI [47]: 59.7 µM | TGI [48]: > 100 µM | TGI [49]: > 100 µM | TGI [50]: > 100 µM
